Results published in patent US8846626B2, “Drug composition for treating chronic liver disease and its application” (Shuguang Hospital Affiliated with Shanghai University of …, priority 2010, dated 2014).

How the values were obtained:
[1] = system: DMN-induced rat liver fibrosis model; test: DMN-induced rat liver fibrosis model, orthogonal design; assay type: in vivo, Wistar male rats; conditions: result in words; compared with original astragalus soup
[2] = system: rats of bile duct ligation; test: Bile duct ligation (BDL) rat liver fibrosis model; assay type: in vivo, SD male rats; conditions: BDL 4 weeks; for Hyp (liver tissue Hyp content): intragastric once daily for 3 weeks from week 2; for Hyp (liver tissue Hyp content) / biliary liver fibrosis scores (integral): x±s
Description: Effect of active component compatibility of Astragalus soup of anti-hepatic fibrosis for rats of bile duct ligation
83 SD male rats, SPF grade, weighing 200˜220 g, by the Shanghai Experimental Animal Center of Chinese Academy of Sciences, Certificate of Conformity: SCXK (Shanghai) 2010-0005, fed on the Shanghai Medical University Experimental Animal Center, free access to water.
Model rats (75 rats) are cut along the ventral midline, exposing the common bile duct, conversely injected hardener into hilus hepatis, ligating proximal and distal ends of the common bile duct, cutting the middle, closing the abdomen for 4 weeks. Sham-operated rats (8 rats) only have abdomen cut, and closed after freeing the common bile duct.
Starting from the first day of 2nd week of modeling, the model rats were randomly divided into 5 groups of astragalus soup, A/B combination, A alone, B alone, and UDCA, each group has 12 rats. While continuing modeling, the groups of administration are intervened by eight times of clinical dose amount of a 65 kg adult body weight. Before using, the drug compositions of astragalus soup, A/B combination, A alone, B alone, and UDCA (UDCA: 80 mg·kg^−1·d^−1, ig) are respectively diluted with 10 ml of distilled water, and is processed with intragastric administration according to 10 ml/kg rat body weight dose, once daily for 3 weeks. And sham-operation control rats (8) and model control group (15) are set; rats in the normal group and the model control group are processed with intragastric administration by the same volume of distilled water.
At the end of 4th week, rats are executed to obtain test samples. HE staining and collagen staining of liver tissue, liver tissue Hyp content, serum liver function: ALT, aspartate aminotransferase, AST, and activity of alkaline phosphatase, ALP, albumin, Alb, and total bilirubin, TBil content.

[3] = system: DMN-induced rat liver fibrosis model; test: DMN-induced rat liver fibrosis model, orthogonal design; assay type: in vivo, Wistar male rats
Description: The DMN-induced rat liver fibrosis model and analysis of orthogonal design is used to obtain the optimal ratio of the composition to lower collagen content in the liver.
160 Wistar male rats, (40 in normal group, 120 in the model group), clean level, body weight (150±10) g, provided by the Shanghai Experimental Animal Center of Chinese Academy of Sciences, and is fed, modeled, and observed in Clean Animal room of Shanghai Medical University Experimental Animal Center, free access to water.
Astragalus Astragalosides and Glycyrrhiza Acid are mixed by weight ratio 3:1, 4:1, 5:1 and 6:1, drug composition A+B in different proportions are randomly selected for subsequent experiments.
Referring to Ala-Kokko method of modeling (Ala-Kokko L, Pihlajaniemi T, Myers J C et al. Gene expression of type I, III and IV collagens in liver fibrosis induced by dimethylnitrosamine in the rat. Biochem J 1987; 244: 75-9.) DMN is diluted with saline into 0.5% solution, in the model group, 120 rats are intraperitoneally injected by […] dose, once per day, on the beginning 3 days of a week, for 4 weeks. In normal control group, 40 rats are intraperitoneally injected with normal saline of same dose.
Respectively at the end of three days of modeling, the end of two weeks of modeling, the end of three weeks of modeling, and the end of four weeks of modeling, 10 normal rats, 10 model rats are observed as a model of dynamic observation. Starting from the end of 2 weeks of modeling, the model rats were randomly divided into 1-6 groups of orthogonal design and model group, each having 10 rats. While continuing modeling, the groups of orthogonal design are intervened by eight times of clinical dose amount of a 65 kg adult body weight, administrated respectively in accordance with design amount. Before using, the drug composition is diluted with 10 ml of distilled water, and is processed with intragastric administration according to 10 ml/kg rat body weight dose, once daily for 2 weeks. And normal control rats (10) and model control group (10) are set; rats in the normal group and the model control groups are processed with intragastric administration by the same volume of distilled water.
Astragalus glycosides A, Glycyrrhiza Acid, B, and drugcomposition A+B are factors for evaluation, each factor were set from two levels (level 1=administration, level 2=no), to obtain the orthogonal design. Model groups and normal groups are set.
Measurement data is expressed as x±s, the SAS 9.1.2, DAS 2.1.1 and SPSS16.0 statistical software are used to process data, and single-factor analysis of variance is used for comparisons between multiple groups.

| Compound | reduces generating of TGF-β1 [1] | Hyp (liver tissue Hyp content) [2] | biliary liver fibrosis scores (integral) [2] | serum liver function ALP [2] | serum liver function ALT [2] | serum liver function AST [2] | serum liver function Alb [2] | serum liver function TBil [2] | Hyp (hydroxyproline content in liver tissue) ([3]; DMN modeling 4 weeks, intragastric once daily for 2 weeks from end of week 2, x±s) | hyperplasia stages of rat liver collagen: stage 0 ([3]; number of rats at stage 0, DMN 4 weeks) | hyperplasia stages of rat liver collagen: stage I ([3]; number of rats at stage I, DMN 4 weeks) | hyperplasia stages of rat liver collagen: stage II ([3]; number of rats at stage II, DMN 4 weeks) | hyperplasia stages of rat liver collagen: stage III ([3]; number of rats at stage III, DMN 4 weeks) | BMP-7 mRNA, protein and protein expression of P-Smad1/5/8 in liver tissue ([3]; result in words, liver fibrosis in rat liver tissues by DMN) | serum liver function ALP ([3]; serum, DMN 4 weeks, x±SD) | serum liver function ALT ([3]; serum, DMN 4 weeks, x±SD) | serum liver function AST ([3]; serum, DMN 4 weeks, x±SD) | serum liver function Alb ([3]; serum, DMN 4 weeks, x±SD) | serum liver function TBil ([3]; serum, DMN 4 weeks, x±SD) |
| --- | --- | --- | --- | --- | --- | --- | --- | --- | --- | --- | --- | --- | --- | --- | --- | --- | --- | --- | --- |
| CC1(C)[C@@H](O[C@H]2O[C@H](C(=O)O)[C@@H](O)[C@H](O)[C@H]2O[C@@H]2O[C@H](C(=O)O)[C@@H](O)[C@H](O)[C@H]2O)CC[C@]2(C)[C@H]3C(=O)C=C4[C@@H]5C[C@@](C)(C(=O)O)CC[C@]5(C)CC[C@@]4(C)[C@]3(C)CC[C@@H]12 [B, Glycyrrhiza Acid] | significantly better than the original astragalus soup | 772.00 ± 86.81^$ μg/g, wet liver weight | 6.50 ± 0.84^$ | 77.22 ± 4.05 K/100 ml | 26.66 ± 7.89 U/L | 93.67 ± 14.46 U/L | 25.07 ± 5.18 g/L | 67.35 ± 7.39^$ μmol/L | 595.74 ± 109.74 µg/g | 0 | 0 | 5 | 4 | significantly increase | 38.77 ± 17.84 K/100 ml | 55.18 ± 17.12 U/L | 76.61 ± 14.09^ U/L | 23.11 ± 5.52 g/L | 10.23 ± 5.42 µmol/L |
| C[C@H](CCC(=O)O)[C@H]1CC[C@H]2[C@@H]3[C@@H](O)C[C@@H]4C[C@H](O)CC[C@]4(C)[C@H]3CC[C@]12C [UDCA, Ursodeoxycholic acid] |  | 790.16 ± 129.85^$$ μg/g, wet liver weight | 6.83 ± 0.75^$$ | 79.01 ± 5.80 K/100 ml | 28.79 ± 8.61 U/L | 102.80 ± 26.01 U/L | 24.20 ± 3.64 g/L | 67.60 ± 9.62^$ μmol/L |  |  |  |  |  |  |  |  |  |  |  |
